For one compound, IC50 results are on record in PMC12004446, “Inhibition by 4-(4-Bromo-2-oxo-3H-benzimidazol-1-yl)-N-(4-iodophenyl)piperidine-1-carboxamide (TH5487) of the Activity of Human 8-Oxoguanine DNA Glycosylase-1 (OGG1) for the Excision of 2,6-Diamino-4-hydroxy-5-formamidopyrimidine, 4,6-Diamino-5-formamidopyrimidine, and 8-Oxoguanine from Oxidatively …” (Biochemistry, 2025).

In general, IC50 refers to the concentration that inhibits the measured activity by half. A lower IC50 goes with greater potency in that assay.

The target in this experiment is T1, human 8-oxoguanine DNA glycosylase-1 (hOGG1) (Homo sapiens, UniProt O15527).
T1 construct: gene OGG1
T1 sequence (O15527 whole entry): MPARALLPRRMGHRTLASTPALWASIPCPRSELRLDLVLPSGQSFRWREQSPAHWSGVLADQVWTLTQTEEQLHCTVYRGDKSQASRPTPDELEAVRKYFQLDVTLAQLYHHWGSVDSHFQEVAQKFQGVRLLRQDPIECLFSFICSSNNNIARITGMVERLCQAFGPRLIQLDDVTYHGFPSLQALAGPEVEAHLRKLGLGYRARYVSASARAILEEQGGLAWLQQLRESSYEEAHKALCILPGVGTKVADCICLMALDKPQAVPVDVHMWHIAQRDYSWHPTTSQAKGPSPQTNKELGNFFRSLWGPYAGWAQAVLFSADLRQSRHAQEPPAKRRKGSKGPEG
The experiment in a line: fluorescence-based 8-oxo-Gua duplex oligodeoxynucleotide incision assay with purified hOGG1; also GC-MS/MS of lesion excision from genomic DNA. The format is biochemical.

In the case of `O=C(Nc1ccc(I)cc1)N1CCC(n2c(=O)[nH]c3c(Br)cccc32)CC1` [TH5487, 4-(4-bromo-2-oxo-3H-benzimidazol-1-yl)-N-(4-iodophenyl)piperidine-1-carboxamide], the 50% inhibitory concentration (IC50) was determined as 0.8 µM.
